Test results: patent US20090099204A1, “Amide derivative, insecticide containing the same and method for application thereof as insecticide” (Mitsui Chemicals, Inc., priority 2005, published 2009)

Columns and labels:
Type in all cases: in vivo
[1] = system: Common Cutworm (Spodoptera litura); assay: Insecticidal Test on Common Cutworm (Spodoptera litura); conditions: Comparative Example 1; same conditions as Test Example 1
Protocol: Insecticidal Test on Common Cutworm (Spodoptera litura)
(§1) A piece of cabbage leaf was immersed for 30 seconds in a liquid chemical prepared by diluting a test compound to a prescribed concentration. After air-drying, the piece was put into a 7-cm polyethylene cup and second-instar larvae of common cutworms were released thereinto. The polyethylene cups were set in an isothermal chamber thermostated at 25° C. From the release 6 days later, the dead and alive were counted. The test was carried out with two replications of 5 insects per a plot.

[2] = system: Diamondback Moth (Plutella xylostella); assay: Insecticidal Test on Diamondback Moth (Plutella xylostella); conditions: Comparative Example 1; same conditions as Test Example 2
Protocol: Insecticidal Test on Diamondback Moth (Plutella xylostella)
as §1, with “of diamondback moths” for “of common cutworms”, “the release,” for “the release”

[3] = system: Western Flower Thrip (Franklinella occidentalis); assay: Insecticidal Test on Western Flower Thrip (Franklinella occidentalis); conditions: Comparative Example 1; same conditions as Test Example 3
[4] = system: Melon Thrip (Thrips palmi); assay: Insecticidal Test on Melon Thrip (Thrips palmi); conditions: Comparative Example 1; same conditions as Test Example 4
Source text: Insecticidal Test on Melon Thrip (Thrips palmi)
Into a plastic cup (diameter: 5 cm, height: 5 cm) was poured 1% agar gel, and the reverse side of a cucumber leaf cut with a diameter of 4.5 cm was placed upward to prepare leaf disc. A chemical to the prescribed concentration was dispersed thereon using a vertical sprayer. After air-drying, 5 adult melon thrips were released thereinto and the resulting material was lidded. 3 days thereafter, the number of surviving insects was counted and the mortality was calculated.

[5] = system: Onion Thrip (Thrips tabaci); conditions: Comparative Example 1; same conditions as Test Example 5
Protocol: Insecticidal Test on Onion Thrip (Thrips tabaci)
A chemical to the prescribed concentration was dispersed on onion seedlings, air-dried, and then both the seedlings and 5 adult insects of onion thrips were put into a glass test tube (diameter; 3 cm, height: 10 cm). The resulting material was lidded. 3 days thereafter, the number of surviving insects was counted and the mortality was calculated.

Measured: insecticidal activity

Cc1cc(C(F)(F)F)cc(C)c1NC(=O)c1cccc(NC(=O)c2ccccc2)c1 [Compound B, N-(2,6-dimethyl-4-trifluoromethyl)phenyl 3-(benzoylamino)benzamide]
could not be confirmed: all assays above

Cc1cc(C(F)(C(F)(F)F)C(F)(F)F)ccc1NC(=O)c1cccc(NC(=O)c2ccccc2I)c1 [Compound A, N-(4-heptafluoroisopropyl-2-methyl)phenyl 3-(2-iodobenzoylamino)benzamide]
could not be confirmed: all assays above
